The values that follow come from patent US5219732A, “Antibody-mediated cofactor-driven reactions” (priority 1990, dated 1993).

What all share (assay type): biochemical
Experiment [1] concerns monoclonal antibody 7G12-A10-G1-A12 elicited against N-methyl mesoporphyrin (NMMP). The experiment can be described thus: Inhibition of antibody-catalyzed chelation of metal ions by mesoporphyrin IX. The conditions noted are these: inhibition of the antibody's catalytic ability (metal chelation by mesoporphyrin IX); read-out: inhibition constant (Ki). An excerpt:
N-Methyl mesoporphyrin (NMMP), a commercially available species obtained from Porphyrin Products, Logan, Utah, having the formula [drawing 3] was conjugated to a carrier protein by treatment of the NMMP with N-hydroxysuccinimide (NHS) and dicyclohexylcarbodiimide, followed by addition of the resulting NHS ester to a solution of the protein. Monoclonal antibodies were elicited in accordance with conventional procedures known to those skilled in the art, and purified by Protein A affinity chromatography.
The inhibition constant (Ki) for the iron(III)mesoporphyrin was less than 10 nM. The term "mesoporphyrin" is used here as an abbreviation for the more complete term "mesoporphyrin IX," and the abbreviations "MP" and "MPIX" are used interchangeably to refer to this species. Thus, "Fe(III)-mesoporphyrin," "iron(III)mesoporphyrin" and "Fe(III)MPIX" are equivalent, and "N-methyl nesoporphyrin," "NMMP" and "N-MeMPIX" and likewise equivalent.

The subject of experiment [2] is antibody 7G12-A10-G1-A12-mesohemin (Fe(III)mesoporphyrin) complex. The experiment can be described thus: Peroxidation of chromogenic peroxidase substrates with H2O2 catalyzed by antibody-mesohemin complex. How it is done: In further experiments, this antibody was used in the presence of H2 O2 to catalyze the oxidation of the following group of typical chromogenic peroxidase substrates: [drawing 7] Reaction mixtures contained 1 mM reducing substrate, 5 mM hydrogen peroxide, 0.5 mM Fe(III)mesoporphyrin chloride (mesohemin), 0.5% w/v Triton X-100, 4% v/v dimethyl sulfoxide (DMSO), and 90 mM tris acetate, pH 8.0, and were incubated at 10° C. Antibody samples contained 0.2 mg/mL (1.3 μM) protein.
The monitored wavelength and Δε value for each reaction, and the plot in FIG. 2 showing the corresponding absorption curves for each comparison are as follows:
The rate of o-dianisidine oxidation was examined at several o-dianisidine concentrations, ranging from 0.05 mM to 2.5 mM, using 10 mM H2 O2 in each case and other reaction conditions as described above. The initial rate of peroxidation v is shown in FIG. 3 as a function of o-dianisidine concentration for both reactions catalyzed by mesohemin alone (open squares) and reactions catalyzed by the antibody-mesohemin complex (filled squares).
Saturation kinetics for the o-dianisidine peroxidation reaction were determined at an o-dianisidine concentration of 0.6 mM, with the remaining reaction conditions as described above. Lineweaver-Burk plots are shown in FIG. 4 for both free mesohemin (open squares) and antibody-mesohemin complex (filled squares) as a function of H2 O2 concentrations. The rates shown are based on an estimated molar extinction coefficient (ε) of 7500 for oxidized o-dianisidine.

The subject of experiment [3] is antibody (elicited against pyridoxal/p-nitrophenylalanine Schiff base analog hapten) which enhanced the bimolecular condensation reaction. Nature of the experiment: Inhibition by hapten of the transamination between p-nitrophenylpyruvic acid and pyridoxamine. As to conditions: 100 μM of the hapten. How it is done: (§1) A hapten was formed by first reacting pyridoxal with p-nitrophenylalanine in the presence of aqueous NaBH4 at pH 8.5 to form a stable Schiff base analog. The latter was then treated with thiourea in 48% HBr followed by aqueous ammonium hydroxide to form the disulfide dimer, which was then reduced and subjected to disulfide exchange with a carrier protein to yield a hapten-protein conjugate in which the hapten was the Schiff base analog.
(§2) Antibodies were elicited against the conjugate in accordance with conventional procedures, and seven antibodies specifically binding to the hapten itself were selected. Inhibition tests were conducted in which p-nitrophenylalanine and pyridoxamine individually were contacted with the antibodies to determine whether or not binding between the antibodies and the hapten-protein conjugate was inhibited in an ELISA assay.
(§3) The same seven antibodies were then used in the transamination reaction between p-nitrophenylpyruvic acid and pyridoxamine to form p-nitrophenylalanine. Reactions were performed in two separate buffer solutions, using 1 mM each of p-nitrophenylpyruvic acid and pyridoxamine, 10 μM antibody (IgG) and 250 μM m-nitrobenzylalcohol as an internal standard in each case. The first buffer solution consisted of 10 mM phosphate and 150 mM NaCl at pH 7.5, and the second consisted of 100 mM imidazole and 100 mM NaCl at pH 7.0.

Experiment [4] relates to antibody (elicited against pyridoxal/p-nitrophenylalanine Schiff base analog hapten) which resulted in the highest rate of amino acid production in the …. The description is as above. As to conditions: 100 μM of the hapten. How it is done: as §1, §2, §3
The test system of experiment [5] is antibody 7G12-A10-G1-A12 plus 1 μM Fe(III)-mesoporphyrin. The experiment can be described thus: Oxidation of pyrogallol, absorption at 420 nm monitored over time (FIG. 1). The conditions noted are these: 5 μM NMMP. How it is done:
In one experiment, the antibody was used for oxidation of pyrogallol as determined spectrometrically by monitoring […]. The reaction was as follows: [drawing 6] The product has a maximum absorption at 420 nm.
(a) 1 μM Fe(III)-mesoporphyrin only;
(c) the antibody plus 1 μM Fe(III)-mesoporphyrin and 5 μM NMMP; and
(d) the antibody plus 1 μM Fe(III)-mesoporphyrin only.

Where [6] appears, read: peroxidation of the named reducing substrate by the antibody-mesohemin complex.

Turning to iron(III)mesoporphyrin, the Ki (commonly a dissociation constant, usually derived from enzyme kinetics or from competition with a known ligand) in experiment [1] is less than 10 nM.
In the case of `Oc1cccc(O)c1O` [pyrogallol], the “Kcat /Km” value in experiment [2] (setting [6]) is 122 M⁻¹ s⁻¹.
As to `Cc1ncc(CO)c(CNC(Cc2ccc([N+](=O)[O-])cc2)C(=O)O)c1O` (stereo not shown) [Schiff base analog], the inhibition of transamination result in experiment [3] and in experiment [4] was “noticeably inhibited” in each case.
With N-Methyl mesoporphyrin [NMMP], the “effect of hapten on antibody catalysis of peroxidation” value in experiment [2] (hapten in a stoichiometric amount relative to antibody binding sites, each of the four reactions) is recorded as “completely blocked antibody catalysis”. In addition, the “effect of NMMP on the pyrogallol oxidation rate” value in experiment [5] was “destroying the catalytic effect”.
Consider `OO` [H2 O2, hydrogen peroxide], for which the Km (usually the concentration of substrate that gives half-maximal velocity) in experiment [2] (o-dianisidine peroxidation, 0.6 mM o-dianisidine, H2O2 concentration varied (Lineweaver-Burk, FIG. 4), pH 8.0, 10° C.) turned out to be 24 mM. Moreover, in experiment [2] (o-dianisidine peroxidation, 0.6 mM o-dianisidine, H2O2 concentration varied, pH 8.0, 10° C.), the “Kcat /Km” value is given as 274 m^-1 s^-1. In experiment [2] (o-dianisidine peroxidation, 0.6 mM o-dianisidine, H2O2 concentration varied, pH 8.0, 10° C., ε estimated 7500), the kcat (in general, the maximal rate divided by the concentration of active sites) is 6.57 s⁻¹.
Turning to `CCn1c(=NN=c2sc3cc(S(=O)(=O)O)ccc3n2CC)sc2cc(S(=O)(=O)O)ccc21` [2,2'-azinobis(3-ethylbenzothiazoline-6-sulfonic acid)], the “Kcat /Km” value in experiment [2] (setting [6]) is 233 M⁻¹ s⁻¹.
